Data on one compound can be found in CN109134447A, “一种富马酸卢帕替芬的杂质b及其制备方法和检测方法” (FUJIAN MINDONG REJUVENATION PHARMACEUTICAL Co Ltd, priority 2018, dated 2019).

The nature of the series: Stability test of the reference solution of the compound of formula I (HPLC peak area). Type of series: physicochemical. The note with it: reference solution in 50% aqueous methanol (25 mg in 25 ml); injected at 0, 2, 4, 8, 12, 24 h after preparation, 20 μl each; within 24 hours.

On to `Cc1cncc(C[N+]2(C)CCC(=C3c4ccccc4CC(=O)c4sccc43)CC2)c1.[Br-]` (stereo not shown) [式Ⅰ所示化合物], for which the “stability (peak area by HPLC)” value is “稳定”.
